We go through four molecules from ChEMBL document CHEMBL1201862, “PubChem BioAssay data set” (2004).

Active and inactive are the calls of the source.

A short description of assay [1]: cytotoxicity toward NIH3T3 fibroblasts, dose response, counter-screen, cell-based, ATP luminescence, mouse fibroblasts (AID 2010).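 Also: cells exposed to compound for about 90 hours before reading.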 Format: functional.
Assay [2] in a line: control 3'UTR Renilla luciferase suppression, dose response, counter-screen for Shn3 inhibitor project, cell-based, Clone20-Shn3RL, cherry-picked (AID 624133). Format: functional. In general terms: A counterscreen serves to expose hits that act by an unwanted route or on another target.
In another assay the target is Paired box protein Pax-8 (Homo sapiens, UniProt Q06710). Briefly: inhibitors of PAX8-driven TPO luciferase reporter, dose response, RMG-I cells, cherry-pick (AID 687027).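 Also: luciferase reporter driven by Pax8 target thyroperoxidase promoter measured by SteadyGlo luminescence.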 Type of assay: functional, cell-based. On the technique in general: In a reporter assay the amount or activity of a reporter protein is the signal.
Assay [3] has as its target T1, Apoptotic protease-activating factor 1 (Homo sapiens, UniProt O14727).
T1 sequence (O14727 whole entry): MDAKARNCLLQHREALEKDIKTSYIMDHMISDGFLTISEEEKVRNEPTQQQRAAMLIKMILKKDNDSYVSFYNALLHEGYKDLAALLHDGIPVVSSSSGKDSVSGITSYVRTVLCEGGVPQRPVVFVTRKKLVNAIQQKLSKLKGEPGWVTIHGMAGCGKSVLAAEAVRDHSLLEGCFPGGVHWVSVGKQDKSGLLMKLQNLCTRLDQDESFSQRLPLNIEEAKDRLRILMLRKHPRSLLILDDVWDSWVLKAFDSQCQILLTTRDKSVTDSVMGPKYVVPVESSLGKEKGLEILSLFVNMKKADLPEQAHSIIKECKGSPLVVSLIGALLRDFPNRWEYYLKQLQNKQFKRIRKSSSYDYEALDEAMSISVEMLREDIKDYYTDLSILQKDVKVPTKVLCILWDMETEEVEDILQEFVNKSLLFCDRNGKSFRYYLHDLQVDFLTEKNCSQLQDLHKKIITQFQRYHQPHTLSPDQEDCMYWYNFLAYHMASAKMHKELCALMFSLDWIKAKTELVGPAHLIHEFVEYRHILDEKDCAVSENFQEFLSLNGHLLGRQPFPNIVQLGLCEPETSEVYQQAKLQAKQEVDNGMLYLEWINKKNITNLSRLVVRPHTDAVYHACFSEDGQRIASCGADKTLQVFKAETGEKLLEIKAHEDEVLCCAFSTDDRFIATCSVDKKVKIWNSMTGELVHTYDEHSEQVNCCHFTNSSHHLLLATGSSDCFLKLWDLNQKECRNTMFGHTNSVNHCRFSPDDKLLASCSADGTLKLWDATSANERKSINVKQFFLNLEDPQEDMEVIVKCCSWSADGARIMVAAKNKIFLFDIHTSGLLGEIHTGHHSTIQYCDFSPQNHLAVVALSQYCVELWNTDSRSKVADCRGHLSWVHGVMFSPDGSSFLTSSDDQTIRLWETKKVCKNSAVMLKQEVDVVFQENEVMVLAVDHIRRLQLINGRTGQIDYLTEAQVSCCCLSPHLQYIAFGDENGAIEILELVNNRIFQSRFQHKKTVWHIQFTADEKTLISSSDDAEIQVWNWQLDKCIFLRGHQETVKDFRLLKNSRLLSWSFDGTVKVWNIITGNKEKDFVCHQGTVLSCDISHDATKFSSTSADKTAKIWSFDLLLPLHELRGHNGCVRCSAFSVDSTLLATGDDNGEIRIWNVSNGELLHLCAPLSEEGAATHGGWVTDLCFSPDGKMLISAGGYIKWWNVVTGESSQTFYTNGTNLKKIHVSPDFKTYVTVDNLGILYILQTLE
Type of assay: functional.

Assay [4] has as its target Leucine-rich repeat serine/threonine-protein kinase 2 (Homo sapiens, UniProt Q5S007). Format: functional.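 Also: value from a broad kinome-wide panel profiling study in which LRRK2 was one of the kinases tested.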
Assay [5] has as its target Vascular endothelial growth factor receptor 1 (Homo sapiens, UniProt P17948). Type of assay: functional.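 Also: measured within a kinome-wide profiling panel, FLT1 as the panel member.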
Assay [6] deals with Rho-associated protein kinase 1 (Homo sapiens, UniProt Q13464). Type of assay: functional.
In assay [7] the target is Casein kinase I isoform alpha (Homo sapiens, UniProt P48729). Type of assay: functional.
Sequence of Casein kinase I isoform alpha (P48729 whole entry, canonical isoform): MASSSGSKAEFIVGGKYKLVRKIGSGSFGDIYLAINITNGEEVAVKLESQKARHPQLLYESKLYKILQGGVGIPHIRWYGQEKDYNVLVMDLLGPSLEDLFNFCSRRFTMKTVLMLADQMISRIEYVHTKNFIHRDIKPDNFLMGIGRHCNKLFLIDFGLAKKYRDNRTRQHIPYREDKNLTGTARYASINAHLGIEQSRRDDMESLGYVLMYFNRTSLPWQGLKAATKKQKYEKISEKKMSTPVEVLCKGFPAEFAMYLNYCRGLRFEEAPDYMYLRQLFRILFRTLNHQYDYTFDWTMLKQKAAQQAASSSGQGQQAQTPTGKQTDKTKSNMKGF
Assay [8] has as its target Mitogen-activated protein kinase 9 (Homo sapiens, UniProt P45984). Format: functional.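 Also: value from a kinome panel profiling assay, MAPK9 panel entry.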
For assay [9], the target named is Vascular endothelial growth factor receptor 2 (Homo sapiens, UniProt P35968). Type of assay: functional.
In assay [10] the target is Vascular endothelial growth factor receptor 3 (Homo sapiens, UniProt P35916). Type of assay: functional.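 Also: value from a kinome-wide profiling panel, with FLT4 as the panel member.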
In assay [11] the target is Tyrosine-protein kinase JAK2 (Homo sapiens, UniProt O60674). Type of assay: functional.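 Also: JAK2 tested as one member of a kinase panel.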
Assay [12] has as its target Macrophage colony-stimulating factor 1 receptor (Homo sapiens, UniProt P07333). Type of assay: functional.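 Also: value comes from the Navigating the Kinome screening panel, CSF1R member.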
Assay [13] deals with Tyrosine-protein kinase ABL1 (Homo sapiens, UniProt P00519). Type of assay: functional.
Assay [14] has as its target Mitogen-activated protein kinase kinase kinase kinase 5 (Homo sapiens, UniProt Q9Y4K4). Format: functional.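 Also: measured as one member of a kinome-spanning kinase panel.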
Assay [15] addresses Mitogen-activated protein kinase 14 (Homo sapiens, UniProt Q16539). Type of assay: functional.
The target of assay [16] is High affinity nerve growth factor receptor (Homo sapiens, UniProt P04629). Type of assay: functional.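 Also: NTRK1 tested as one member of a kinome-wide profiling panel.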
Assay [17] addresses Serine/threonine-protein kinase PLK4 (Homo sapiens, UniProt O00444). Format: functional.
Another assay concerns the target Aurora kinase B (Homo sapiens, UniProt Q96GD4). Type of assay: functional.
The target in assay [18] is Macrophage-stimulating protein receptor (Homo sapiens, UniProt Q04912). Kind of assay: Navigating the Kinome. Panel member name: MST1R. Format: functional.
Sequence of Macrophage-stimulating protein receptor (Q04912 25-304 limits assumed): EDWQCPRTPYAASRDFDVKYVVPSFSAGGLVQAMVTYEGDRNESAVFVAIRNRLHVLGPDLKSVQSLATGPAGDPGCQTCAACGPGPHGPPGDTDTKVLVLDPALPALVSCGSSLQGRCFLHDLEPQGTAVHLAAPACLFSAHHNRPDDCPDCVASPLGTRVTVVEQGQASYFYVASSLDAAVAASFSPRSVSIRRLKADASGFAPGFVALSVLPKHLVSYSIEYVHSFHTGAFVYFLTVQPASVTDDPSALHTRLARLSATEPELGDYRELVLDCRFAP
Sequence of Macrophage-stimulating protein receptor (Q04912 310-1400 limits assumed): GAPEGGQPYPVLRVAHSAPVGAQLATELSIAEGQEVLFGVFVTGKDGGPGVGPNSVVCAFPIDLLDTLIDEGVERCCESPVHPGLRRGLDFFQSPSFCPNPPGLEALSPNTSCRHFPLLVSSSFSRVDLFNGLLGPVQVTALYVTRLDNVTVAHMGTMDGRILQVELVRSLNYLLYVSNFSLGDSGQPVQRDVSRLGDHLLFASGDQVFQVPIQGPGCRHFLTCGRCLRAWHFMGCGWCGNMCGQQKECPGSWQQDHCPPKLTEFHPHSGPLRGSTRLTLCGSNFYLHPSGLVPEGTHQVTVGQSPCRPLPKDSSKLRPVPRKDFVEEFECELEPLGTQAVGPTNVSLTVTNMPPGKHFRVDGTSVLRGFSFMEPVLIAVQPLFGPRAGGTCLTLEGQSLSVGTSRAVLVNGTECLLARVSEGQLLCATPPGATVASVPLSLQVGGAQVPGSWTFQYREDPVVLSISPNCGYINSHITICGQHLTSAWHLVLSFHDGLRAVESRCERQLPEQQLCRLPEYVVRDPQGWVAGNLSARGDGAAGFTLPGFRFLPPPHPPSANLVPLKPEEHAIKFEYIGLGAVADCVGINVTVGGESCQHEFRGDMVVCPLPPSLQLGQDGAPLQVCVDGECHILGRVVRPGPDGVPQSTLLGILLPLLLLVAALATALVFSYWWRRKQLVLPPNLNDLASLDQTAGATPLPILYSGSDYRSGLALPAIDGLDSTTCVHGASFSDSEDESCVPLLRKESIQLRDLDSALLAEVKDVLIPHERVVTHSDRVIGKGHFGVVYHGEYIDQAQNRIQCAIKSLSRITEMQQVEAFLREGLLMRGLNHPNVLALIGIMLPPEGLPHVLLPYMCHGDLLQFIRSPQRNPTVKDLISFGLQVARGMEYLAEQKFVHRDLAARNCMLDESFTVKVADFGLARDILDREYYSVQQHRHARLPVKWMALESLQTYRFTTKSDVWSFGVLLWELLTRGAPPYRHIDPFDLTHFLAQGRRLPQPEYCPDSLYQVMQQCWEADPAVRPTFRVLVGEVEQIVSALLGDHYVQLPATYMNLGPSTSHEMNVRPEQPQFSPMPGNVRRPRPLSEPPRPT
The target in assay [19] is Hepatocyte growth factor receptor (Homo sapiens, UniProt P08581). Type of assay: functional.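 Also: kinase panel profiling across the kinome, with MET as the panel member.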
Assay [20] addresses Mitogen-activated protein kinase kinase kinase kinase 2 (Homo sapiens, UniProt Q12851). Format: functional.
Assay [21] concerns the target ALK tyrosine kinase receptor (Homo sapiens, UniProt Q9UM73). Type of assay: functional.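 Also: ALK tested as one member of a kinase panel screen.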
For assay [22], the target named is Tyrosine-protein kinase receptor UFO (Homo sapiens, UniProt P30530). Type of assay: functional.
For assay [23], the target named is Dual specificity protein kinase CLK4 (Homo sapiens, UniProt Q9HAZ1). Format: functional.
Sequence of Dual specificity protein kinase CLK4 (Q9HAZ1 whole entry): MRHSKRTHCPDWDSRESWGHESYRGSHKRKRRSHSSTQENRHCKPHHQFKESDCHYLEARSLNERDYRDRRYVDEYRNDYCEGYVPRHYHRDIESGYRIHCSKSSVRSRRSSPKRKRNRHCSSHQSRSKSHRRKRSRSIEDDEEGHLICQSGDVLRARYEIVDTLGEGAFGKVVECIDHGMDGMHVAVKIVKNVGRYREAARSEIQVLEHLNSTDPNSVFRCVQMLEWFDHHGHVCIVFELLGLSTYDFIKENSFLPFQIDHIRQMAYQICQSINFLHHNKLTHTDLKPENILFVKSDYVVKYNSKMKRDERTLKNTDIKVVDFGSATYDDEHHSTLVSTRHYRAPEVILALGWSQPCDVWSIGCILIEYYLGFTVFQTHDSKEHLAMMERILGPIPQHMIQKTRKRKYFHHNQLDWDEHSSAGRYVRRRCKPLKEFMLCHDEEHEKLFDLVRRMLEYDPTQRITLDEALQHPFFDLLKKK
Assay [24] concerns the target Serine/threonine-protein kinase TAO1 (Homo sapiens, UniProt Q7L7X3). Format: functional.
For the next assay, the system named is HT-1080. Briefly: cytotoxicity in HT1080 fibrosarcoma cells, cell-based, fluorescence readout (AID 620). Format: functional. The conditions noted are these: Homo sapiens.

Sequence of ALK tyrosine kinase receptor (Q9UM73 whole entry): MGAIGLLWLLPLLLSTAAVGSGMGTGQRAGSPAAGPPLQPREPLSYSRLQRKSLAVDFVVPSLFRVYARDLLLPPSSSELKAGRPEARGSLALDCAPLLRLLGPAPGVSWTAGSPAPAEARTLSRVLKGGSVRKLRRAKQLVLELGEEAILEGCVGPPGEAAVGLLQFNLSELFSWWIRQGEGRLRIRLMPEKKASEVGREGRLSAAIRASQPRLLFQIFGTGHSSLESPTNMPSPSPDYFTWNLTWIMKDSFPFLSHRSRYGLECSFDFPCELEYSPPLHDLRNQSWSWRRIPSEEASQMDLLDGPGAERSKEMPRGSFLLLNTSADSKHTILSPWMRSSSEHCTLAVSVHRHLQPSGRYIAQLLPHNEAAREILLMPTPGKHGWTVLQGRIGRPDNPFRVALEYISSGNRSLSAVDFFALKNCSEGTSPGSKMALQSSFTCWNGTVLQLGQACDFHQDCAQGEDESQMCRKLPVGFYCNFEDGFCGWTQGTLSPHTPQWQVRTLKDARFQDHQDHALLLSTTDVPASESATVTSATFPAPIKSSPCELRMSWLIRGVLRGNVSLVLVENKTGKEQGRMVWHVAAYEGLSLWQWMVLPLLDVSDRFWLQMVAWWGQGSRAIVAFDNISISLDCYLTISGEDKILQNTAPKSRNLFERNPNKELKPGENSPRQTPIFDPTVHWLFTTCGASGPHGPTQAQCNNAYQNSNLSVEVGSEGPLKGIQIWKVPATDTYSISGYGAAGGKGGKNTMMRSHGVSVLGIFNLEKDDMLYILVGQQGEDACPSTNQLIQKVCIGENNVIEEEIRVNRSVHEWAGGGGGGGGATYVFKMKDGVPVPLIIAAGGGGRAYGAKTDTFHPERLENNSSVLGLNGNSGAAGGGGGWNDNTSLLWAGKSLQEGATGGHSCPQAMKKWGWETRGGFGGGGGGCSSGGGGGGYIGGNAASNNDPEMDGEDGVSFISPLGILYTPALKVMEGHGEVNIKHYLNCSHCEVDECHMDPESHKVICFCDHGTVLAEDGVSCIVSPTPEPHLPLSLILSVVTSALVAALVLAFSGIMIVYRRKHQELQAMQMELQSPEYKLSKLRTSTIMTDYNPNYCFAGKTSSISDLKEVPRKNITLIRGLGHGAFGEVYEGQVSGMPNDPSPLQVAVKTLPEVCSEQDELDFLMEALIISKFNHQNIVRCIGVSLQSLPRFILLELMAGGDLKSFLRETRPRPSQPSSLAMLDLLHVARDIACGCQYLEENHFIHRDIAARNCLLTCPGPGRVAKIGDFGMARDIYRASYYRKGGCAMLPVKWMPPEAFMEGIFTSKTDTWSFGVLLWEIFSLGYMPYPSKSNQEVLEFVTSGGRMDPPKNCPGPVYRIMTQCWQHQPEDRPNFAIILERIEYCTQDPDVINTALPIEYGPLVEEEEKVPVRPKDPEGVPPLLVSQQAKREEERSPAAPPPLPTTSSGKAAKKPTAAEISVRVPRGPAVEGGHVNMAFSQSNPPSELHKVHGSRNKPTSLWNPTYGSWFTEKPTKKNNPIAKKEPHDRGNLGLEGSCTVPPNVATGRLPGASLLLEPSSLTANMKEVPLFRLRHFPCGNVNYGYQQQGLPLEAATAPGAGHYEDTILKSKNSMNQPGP
Sequence of Mitogen-activated protein kinase kinase kinase kinase 2 (Q12851 whole entry): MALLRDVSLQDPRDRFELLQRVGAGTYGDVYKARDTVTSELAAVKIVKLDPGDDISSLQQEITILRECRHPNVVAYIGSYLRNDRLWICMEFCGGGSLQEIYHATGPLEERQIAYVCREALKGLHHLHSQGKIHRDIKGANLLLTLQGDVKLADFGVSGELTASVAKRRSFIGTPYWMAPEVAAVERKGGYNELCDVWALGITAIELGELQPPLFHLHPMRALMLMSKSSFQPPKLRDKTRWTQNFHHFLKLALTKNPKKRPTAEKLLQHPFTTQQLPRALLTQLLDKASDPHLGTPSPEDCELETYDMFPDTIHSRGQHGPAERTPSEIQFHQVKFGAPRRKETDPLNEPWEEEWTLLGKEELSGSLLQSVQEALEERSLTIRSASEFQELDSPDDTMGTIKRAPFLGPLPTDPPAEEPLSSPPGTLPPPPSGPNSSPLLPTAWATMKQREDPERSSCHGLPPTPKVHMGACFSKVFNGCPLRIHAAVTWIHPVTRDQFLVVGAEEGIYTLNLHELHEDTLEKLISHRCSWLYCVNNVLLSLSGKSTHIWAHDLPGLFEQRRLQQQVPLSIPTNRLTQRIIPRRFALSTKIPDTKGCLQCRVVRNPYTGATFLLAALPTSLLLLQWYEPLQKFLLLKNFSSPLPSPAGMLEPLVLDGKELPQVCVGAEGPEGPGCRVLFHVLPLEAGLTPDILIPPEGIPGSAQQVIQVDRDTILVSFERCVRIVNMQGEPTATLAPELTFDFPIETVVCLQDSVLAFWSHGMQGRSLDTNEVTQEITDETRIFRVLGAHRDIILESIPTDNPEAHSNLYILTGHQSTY
Sequence of Mitogen-activated protein kinase 9 (P45984 whole entry): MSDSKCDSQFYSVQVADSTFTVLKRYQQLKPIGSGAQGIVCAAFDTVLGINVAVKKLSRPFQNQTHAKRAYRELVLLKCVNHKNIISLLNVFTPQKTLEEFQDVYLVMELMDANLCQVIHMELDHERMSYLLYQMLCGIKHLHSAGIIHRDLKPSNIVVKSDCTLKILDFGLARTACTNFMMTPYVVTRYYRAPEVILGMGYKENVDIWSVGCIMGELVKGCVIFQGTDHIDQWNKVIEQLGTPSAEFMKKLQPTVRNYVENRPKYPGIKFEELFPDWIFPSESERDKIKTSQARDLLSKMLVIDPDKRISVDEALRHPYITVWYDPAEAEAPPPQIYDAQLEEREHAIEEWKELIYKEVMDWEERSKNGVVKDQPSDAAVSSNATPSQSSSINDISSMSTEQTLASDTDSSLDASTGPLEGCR

Broadly, the EC50 is the concentration giving half of the maximal effect. In general, AC50 refers to the midpoint of the concentration-response curve, whichever way the signal moves. Usually IC50 stands for the point on the concentration scale where inhibition reaches its midpoint. With `CCn1nc(/C=C/c2ccccc2)nc2c(=O)n(C)c(=O)nc1-2`, the half-maximal effective concentration (EC50) in assay [1] was 1.02 µM (active). Further, the half-maximal activity concentration (AC50) in assay [2] was 5.79 µM (active); at Paired box protein Pax-8, 4.21 µM (active). Further, the IC50 in [3] is 0.0572 µM (active).
The Ki is a dissociation constant, usually derived from enzyme kinetics or from competition with a known ligand. As for `COc1cc2c(cc1Nc1nc(Nc3cccc(F)c3C(N)=O)c3cc[nH]c3n1)N(C(=O)CN(C)C)CC2`, the Ki in assay [4] was 0.00794 µM (active); in [5], > 3.98 µM (inactive); in assay [6] it was 2 µM (active); in [7] it was 1.26 µM (active); in [8], 0.631 µM (active); in assay [9], > 2.51 µM (inactive). Also, the Ki in assay [10] is > 6.31 µM (inactive); in assay [11] it was > 2.51 µM (inactive); in assay [12] it was > 2.51 µM (inactive); in assay [13], > 2.51 µM (inactive); in assay [14] it was > 7.94 µM (inactive); in [15], > 3.98 µM (inactive). Besides, the Ki in assay [16] was > 3.16 µM (inactive); in assay [17] it was 2 µM (active); on Aurora kinase B it was > 3.98 µM (inactive); in assay [18] it was > 3.98 µM (inactive); in assay [19] it was > 2.51 µM (inactive); in [20], > 2.51 µM (inactive). The inhibition constant Ki in assay [21] was 0.00126 µM (active); in [22], 0.126 µM (active); in [23], 0.02 µM (active); in [24] it was 2 µM (active).
Turning to `CC(C)c1ccc(-c2nnn(CCC(=O)O)n2)cc1`, the EC50 with HT-1080 is recorded as > 50 µM (not active).
As for `O=c1[nH][nH]c2ccc(Br)cc12`, the Ki in assay [4] was 3.98 µM (active); in assay [5], 7.94 µM (active); in assay [6], 15.8 µM (active); in assay [7] it was 7.94 µM (active); in [9] it was 63.1 µM (active); in assay [11], 25.1 µM (active). Moreover, the inhibitory constant (Ki) was 39.8 µM (active) in assay [12]; 39.8 µM (active) in [13]; 31.6 µM (active) in [18]; 12.6 µM (active) in assay [19]; 31.6 µM (active) in assay [20]; 79.4 µM (active) in assay [21]. Also, the inhibition constant (Ki) in assay [23] is 1.26 µM (active); in assay [24], 79.4 µM (active).
